Measurements: publication PMC2001878, “Pharmacokinetic studies with zinc(II)-phthalocyanine in tumour-bearing mice” (British Journal of Cancer, 1987)
Entries after “also recorded” stand apart in the source; their conditions may differ. One block for each compound: values may come before it.

Columns and labels:
[1] = design: method as in Tralau et al., 1987; conditions: i.v., ref Tralau et al., 1987, cited from earlier work
[2] = Elimination pathway: analysis of faeces and urine of rats in metabolic cages; type: in vivo, Wistar albino rats; conditions: rapid clearance phase
[3] = Serum concentration time course after i.p. injection of liposomal Zn-Pc in tumour-bearing mice; type: in vivo, BALB/c mice; conditions: 0.5 mg kg-1 i.p. in DPPC liposomes, mice bearing MS-2 fibrosarcoma
Excerpt: Br. J. Cancer (1987), 56, 597~~~~~~ ~~-60?TeMcilnPssLd,18 Pharmacokinetic studies with zinc(II)-phthalocyanine in tumour-bearing mice E. Reddi, G. Lo Castro, R. Biolo & G. Jori Department of Biology via Loredan 10, University of Padova, 1-35131 Padova, Italy. Summary Zn(II)-phthalocyanine (Zn-Pc) incorporated into unilamellar liposomes of dipalmitoyl- phosphatidylcholine has been injected intraperitoneally (0.5mgkg-1) to BALB/c mice bearing a transplanted MS-2 fibrosarcoma. […] Several normal tissues take up the drug within 3 hours after administration but release it almost completely after 24-48 hours. […] The results are discussed in terms of a possible use of Zn-Pc as a photosensitizer in the photodynamic therapy of tumours. Haematoporphyrin and haematoporphyrin derivative (HpD) are presently used as sensitizers for the specific destruction of tumours by photodynamic therapy (PDT) (Moan, 1986; Spikes & Jori, 1987). Although the technique is being applied for the treatment of a variety of neoplasias at both the experimental and clinical level (Dougherty, 1984), PDT is facing some problems and/or limitations. Thus, HpD as it is prepared from Hp (Lipson et al., 1961) is a complex mixture of porphyrins, whose composition is often not reproduced in different preparations and may change as a function of various experimental parameters (Bonnett et al., 1981; Dougherty, 1983). […] Moreover, PDT is usually performed by irradiation with 620-630 nm light; unfortunately, the molar absorptivity of Hp or HpD in this wavelength range is very low (< 103 M- 1 cm- 1). […] Pharmacokinetic studies The Zn-Pc was injected- i.p. into tumour-bearing mice after incorporation of the dye into small unilamellar liposomes of DPPC following the procedure described by Valduga et al. (1987): The Zn-Pc/DPPC ratio was 1:36 on a molar basis, as assessed from the weighed amount of phospholipid and absorbance measurements at 680 nm for Zn-Pc (E= 1.68 x 105 M-1 cm- at 673 nm). […]

serum lipoproteins = experiment: Sephacryl S-300 chromatography of mouse serum after Zn-Pc administration; type: in vivo, BALB/c mice; conditions: sera taken between 1 h and 1 week after i.p. administration; second protein peak on Sephacryl S-300
Excerpt: Br. J. Cancer (1987), 56, 597~~~~~~ ~~-60?TeMcilnPssLd,18 Pharmacokinetic studies with zinc(II)-phthalocyanine in tumour-bearing mice E. Reddi, G. Lo Castro, R. Biolo & G. Jori Department of Biology via Loredan 10, University of Padova, 1-35131 Padova, Italy. Summary Zn(II)-phthalocyanine (Zn-Pc) incorporated into unilamellar liposomes of dipalmitoyl- phosphatidylcholine has been injected intraperitoneally (0.5mgkg-1) to BALB/c mice bearing a transplanted MS-2 fibrosarcoma. […] Several normal tissues take up the drug within 3 hours after administration but release it almost completely after 24-48 hours. […] The results are discussed in terms of a possible use of Zn-Pc as a photosensitizer in the photodynamic therapy of tumours. Haematoporphyrin and haematoporphyrin derivative (HpD) are presently used as sensitizers for the specific destruction of tumours by photodynamic therapy (PDT) (Moan, 1986; Spikes & Jori, 1987). […] Pharmacokinetic studies The Zn-Pc was injected- i.p. into tumour-bearing mice after incorporation of the dye into small unilamellar liposomes of DPPC following the procedure described by Valduga et al. (1987): The Zn-Pc/DPPC ratio was 1:36 on a molar basis, as assessed from the weighed amount of phospholipid and absorbance measurements at 680 nm for Zn-Pc (E= 1.68 x 105 M-1 cm- at 673 nm). […]

[4] = Recovery of Zn-Pc from tumour and normal tissues of tumour-bearing mice; type: in vivo, BALB/c mice
Excerpt: Br. J. Cancer (1987), 56, 597~~~~~~ ~~-60?TeMcilnPssLd,18 Pharmacokinetic studies with zinc(II)-phthalocyanine in tumour-bearing mice E. Reddi, G. Lo Castro, R. Biolo & G. Jori Department of Biology via Loredan 10, University of Padova, 1-35131 Padova, Italy. Summary Zn(II)-phthalocyanine (Zn-Pc) incorporated into unilamellar liposomes of dipalmitoyl- phosphatidylcholine has been injected intraperitoneally (0.5mgkg-1) to BALB/c mice bearing a transplanted MS-2 fibrosarcoma. […] Several normal tissues take up the drug within 3 hours after administration but release it almost completely after 24-48 hours. […] The results are discussed in terms of a possible use of Zn-Pc as a photosensitizer in the photodynamic therapy of tumours. Haematoporphyrin and haematoporphyrin derivative (HpD) are presently used as sensitizers for the specific destruction of tumours by photodynamic therapy (PDT) (Moan, 1986; Spikes & Jori, 1987). Although the technique is being applied for the treatment of a variety of neoplasias at both the experimental and clinical level (Dougherty, 1984), PDT is facing some problems and/or limitations. Thus, HpD as it is prepared from Hp (Lipson et al., 1961) is a complex mixture of porphyrins, whose composition is often not reproduced in different preparations and may change as a function of various experimental parameters (Bonnett et al., 1981; Dougherty, 1983). […] Moreover, PDT is usually performed by irradiation with 620-630 nm light; unfortunately, the molar absorptivity of Hp or HpD in this wavelength range is very low (< 103 M- 1 cm- 1). […] The ability of phthalocyanines and some of their metal derivatives to act as efficient photosensitizers of simple biological substrates (Spikes & Bommer, 1986) and cultured cells (Ben-Hur & Rosenthal, 1985; Chan et al., 1986) has been documented. Finally, Rousseau et al. (1985) have reported that tetra- sulphophthalocyanines (TSPc) can accumulate in a mammary adenocarcinoma in rats. While tetrasulphophthalocyanines are suitable for in vivo studies because of their high water-solubility, serious problems may arise owing to the low degree of purity. Actually, the presently adopted procedures for sulfonation of phthalocyanines lead to mixtures of mono-, di-, tri- and tetra-sulphonated compounds (Linstead & Weiss, 1950; Moser & Thomas, 1983). In general, underivatized phthalocyanines can be obtained with a very high purity and display a good efficiency in the generation of activated oxygen species (Maillard et al., 1980; Wu et al., 1985). […] In this paper, we describe the pharmacokinetic behaviour of liposome-bound Zn- phthalocyanine injected into. BALB/c mice bearing a transplanted fibrosarcoma. Materials and methods Chemicals Zn2 +-phthalocyanine (Zn-Pc) was supplied by Ciba-Geigy (Switzerland) and used without further purification. […] Dipalmitoyl- phosphatidylcholine (DPPC), over 98% pure, was a product of Sigma Chemical Co.; sodium dodecylsulphate (SDS) and Sephacryl S-300 were purchased from Merck and Pharmacia, respectively. […] Pharmacokinetic studies The Zn-Pc was injected- i.p. into tumour-bearing mice after incorporation of the dye into small unilamellar liposomes of DPPC following the procedure described by Valduga et al. (1987): The Zn-Pc/DPPC ratio was 1:36 on a molar basis, as assessed from the weighed amount of phospholipid and absorbance measurements at 680 nm for Zn-Pc (E= 1.68 x 105 M-1 cm- at 673 nm). […]

HDL = experiment: In vitro incubation of human serum with Zn-Pc incorporated into DPPC liposomes; type: in vitro ADME; conditions: Reddi et al., unpublished results
[5] = design: method as in Tomio et al. (1982); conditions: Wistar rats; ref Tomio et al. (1982); cited from earlier work

Compound: tetrasulphophthalocyanines [TSPc]
- time of accumulation in tumour ([1]; fibrosarcoma implanted s.c. in the flank): 1 to 3 h
- time to complete disappearance from serum [1]: ≤ 3 h

- serum half-life (fast phase) [3]: approximately 9 hours
- time of maximum serum concentration after administration [3]: 3 h
- fraction of Zn-Pc eliminated from serum in the fast phase ([3]; biphasic clearance): approximately 60%
- time of almost complete release from normal tissues ([4]; 0.5 mg kg-1 i.p.): 24 to 48 h
- time of maximum tumour concentration ([4]; MS-2 fibrosarcoma, 0.5 mg kg-1 i.p. in DPPC liposomes): 18 to 24 h
- ratio between Zn-Pc levels in tumour and muscle ([4]; at 18-24 h (24 h) after 0.5 mg kg-1 i.p., muscle = surrounding normal tissue): approximately 7.5
- time of uptake by several normal tissues after administration ([4]; liver, kidneys, spleen, lungs, muscle, 0.5 mg kg-1 i.p.): ≤ 3 h
- skin concentration of Zn-Pc ([4]; mouse skin, between 1 h and 168 h after administration, 0.5 mg kg-1 i.p.): ≤ 0.1 pug g- I tissue
- fraction of drug bound by HDL (HDL): at least 70%
Compound: [Zn+2].c1ccc2c(c1)-c1nc-2nc2[n-]c(nc3nc([n-]c4nc(n1)-c1ccccc1-4)-c1ccccc1-3)c1ccccc21 [Zn-Pc, Zn(II)-phthalocyanine]
- elimination pathway from serum [2]: almost exclusively via the bile-gut pathway
- serum protein class transporting the drug (serum lipoproteins): specifically transported by serum lipoproteins; also recorded: specifically associated with the second protein peak

Compound: CC1=C(CCC(=O)O)c2cc3[nH]c(cc4nc(cc5[nH]c(cc1n2)c(C)c5C(C)O)C(C)=C4C(C)O)c(C)c3CCC(=O)O (centres unmarked) [haematoporphyrin]
- fraction of totally eliminated drug recovered in the faeces [5]: at least 98%
